In brackets after ≈: the same amount, converted by molar mass. Read-outs that look alike come from different tables or passages of the source. One block for each compound: values may come before it.
Columns and labels:
[1] = test system: 24 strains of S. aureus (SA1-SA24); assay: Broth micro-dilution MIC against 24 strains of S. aureus; assay type: cell-based; details: for MIC: Staphylococcus aureus, read-out: Compound MIC
Method: Compounds were tested for their anti-bacterial activity against 56 clinical isolates including 24 clinical isolates of methicillin resistant S. aureus (MRSA) and methicillin-susceptible S. aureus (MSSA), 8 strains of Enterococcus, 8 strains of Acinetobacter baumannii, 8 strains of Klebsiella pneumoniae, and 8 strains of Pseudomonas aeruginosa using a standard broth micro-dilution method as recommended by the Clinical and Laboratory Standard Institute (CLSI, M100, s23).
HN18 HN19, and HN34 were tested by a broth micro-dilution method to determine their minimal inhibitory concentration (MIC) against 24 strains of S. aureus (SA1-SA24) (Table 2). […]. Furthermore, the results for HN18 and HN34 were consistent across four repeated experiments. […]

S. aureus isolates = details: for MIC: Staphylococcus aureus
[2] = test system: S. aureus clinical isolates; assay: Synergistic effect with oxacillin (oxacillin MIC alone and in presence of SIC); assay type: cell-based, Staphylococcus aureus; details: Staphylococcus aureus
Method: The synergistic effect (interaction) of HN18 and HN34 with different antibiotics against S. aureus clinical isolates was studied. The oxacillin MIC values of 8 clinical isolates of Staphylococcus aureus were determined. The oxacillin MIC of the same isolates were also determined after they were exposed to SIC of HN18, HN34 (Table 5). […] Column 2 and 3 show the oxacillin MIC value of the same isolates in presence of SIC of HN18 and HN34 respectively.

MIC ([1]; isolate SA1, experiment I): 1 µg/mL (≈ 2.03 µM) | MIC ([1]; isolate SA1, experiment II): 8 µg/mL (≈ 16.2 µM) | MIC ([1]; isolate SA1, experiment III): 8 µg/mL (≈ 16.2 µM) | MIC ([1]; isolate SA1, experiment IV): 16 µg/mL (≈ 32.5 µM) | MIC ([1]; isolate SA2, experiment I): 1 µg/mL (≈ 2.03 µM) | MIC ([1]; isolate SA2, experiment II): 4 µg/mL (≈ 8.12 µM) | MIC ([1]; isolate SA2, experiment III): 4 µg/mL (≈ 8.12 µM) | MIC ([1]; isolate SA2, experiment IV): 8 µg/mL (≈ 16.2 µM) | MIC ([1]; isolate SA3, experiment I): 1 µg/mL (≈ 2.03 µM) | MIC ([1]; isolate SA3, experiment II): 4 µg/mL (≈ 8.12 µM) | MIC ([1]; isolate SA3, experiment III): 8 µg/mL (≈ 16.2 µM) | MIC ([1]; isolate SA3, experiment IV): 8 µg/mL (≈ 16.2 µM) | MIC ([1]; isolate SA4, experiment I): 2 µg/mL (≈ 4.06 µM) | MIC ([1]; isolate SA4, experiment II): 4 µg/mL (≈ 8.12 µM) | MIC ([1]; isolate SA4, experiment III): 8 µg/mL (≈ 16.2 µM) | MIC ([1]; isolate SA4, experiment IV): 1 µg/mL (≈ 2.03 µM) | MIC ([1]; isolate SA5, experiment I): 0.5 µg/mL (≈ 1.02 µM) | MIC ([1]; isolate SA5, experiment II): 2 µg/mL (≈ 4.06 µM) | MIC ([1]; isolate SA5, experiment III): 4 µg/mL (≈ 8.12 µM) | MIC ([1]; isolate SA5, experiment IV): 8 µg/mL (≈ 16.2 µM) | MIC ([1]; isolate SA6, experiment I): 0.5 µg/mL (≈ 1.02 µM) | MIC ([1]; isolate SA6, experiment II): 4 µg/mL (≈ 8.12 µM) | MIC ([1]; isolate SA6, experiment III): 4 µg/mL (≈ 8.12 µM) | MIC ([1]; isolate SA6, experiment IV): 8 µg/mL (≈ 16.2 µM) | MIC ([1]; isolate SA7, experiment I): 0.5 µg/mL (≈ 1.02 µM) | MIC ([1]; isolate SA7, experiment II): 4 µg/mL (≈ 8.12 µM) | MIC ([1]; isolate SA7, experiment III): 4 µg/mL (≈ 8.12 µM) | MIC ([1]; isolate SA7, experiment IV): 8 µg/mL (≈ 16.2 µM) | MIC ([1]; isolate SA8, experiment I): 0.5 µg/mL (≈ 1.02 µM) | MIC ([1]; isolate SA8, experiment II): 4 µg/mL (≈ 8.12 µM) | MIC ([1]; isolate SA8, experiment III): 8 µg/mL (≈ 16.2 µM) | MIC ([1]; isolate SA8, experiment IV): 8 µg/mL (≈ 16.2 µM) | MIC ([1]; isolate SA9, experiment I): 0.5 µg/mL (≈ 1.02 µM) | MIC ([1]; isolate SA9, experiment II): 0.5 µg/mL (≈ 1.02 µM) | MIC ([1]; isolate SA10, experiment I): 2 µg/mL (≈ 4.06 µM) | MIC ([1]; isolate SA10, experiment II): 4 µg/mL (≈ 8.12 µM) | MIC ([1]; isolate SA11, experiment I): 1 µg/mL (≈ 2.03 µM) | MIC ([1]; isolate SA11, experiment II): 2 µg/mL (≈ 4.06 µM) | MIC ([1]; isolate SA12, experiment I): 2 µg/mL (≈ 4.06 µM) | MIC ([1]; isolate SA12, experiment II): 4 µg/mL (≈ 8.12 µM) | MIC ([1]; isolate SA13, experiment I): 1 µg/mL (≈ 2.03 µM) | MIC ([1]; isolate SA13, experiment II): 4 µg/mL (≈ 8.12 µM) | MIC ([1]; isolate SA14, experiment I): 2 µg/mL (≈ 4.06 µM) | MIC ([1]; isolate SA14, experiment II): 2 µg/mL (≈ 4.06 µM) | MIC ([1]; isolate SA15, experiment I): 1 µg/mL (≈ 2.03 µM) | MIC ([1]; isolate SA15, experiment II): 1 µg/mL (≈ 2.03 µM) | MIC ([1]; isolate SA16, experiment I): 0.25 µg/mL (≈ 0.508 µM) | MIC ([1]; isolate SA16, experiment II): 0.5 µg/mL (≈ 1.02 µM) | MIC ([1]; isolate SA17, experiment I): 2 µg/mL (≈ 4.06 µM) | MIC ([1]; isolate SA17, experiment II): 4 µg/mL (≈ 8.12 µM) | MIC ([1]; isolate SA18, experiment I): 1 µg/mL (≈ 2.03 µM) | MIC ([1]; isolate SA18, experiment II): 4 µg/mL (≈ 8.12 µM) | MIC ([1]; isolate SA19, experiment I): 1 µg/mL (≈ 2.03 µM) | MIC ([1]; isolate SA19, experiment II): 4 µg/mL (≈ 8.12 µM) | MIC ([1]; isolate SA20, experiment I): 1 µg/mL (≈ 2.03 µM) | MIC ([1]; isolate SA20, experiment II): 4 µg/mL (≈ 8.12 µM) | MIC ([1]; isolate SA21, experiment I): 2 µg/mL (≈ 4.06 µM) | MIC ([1]; isolate SA21, experiment II): 8 µg/mL (≈ 16.2 µM) | MIC ([1]; isolate SA22, experiment I): 2 µg/mL (≈ 4.06 µM) | MIC ([1]; isolate SA22, experiment II): 4 µg/mL (≈ 8.12 µM) | MIC ([1]; isolate SA23, experiment I): 2 µg/mL (≈ 4.06 µM) | MIC ([1]; isolate SA23, experiment II): 4 µg/mL (≈ 8.12 µM) | MIC ([1]; isolate SA24, experiment I): 1 µg/mL (≈ 2.03 µM) | MIC ([1]; isolate SA24, experiment II): 4 µg/mL (≈ 8.12 µM)
SMILES: COc1cc(/C=C/C(=O)C(=Cc2ccc(F)c(F)c2)C(=O)/C=C/c2ccc(O)c(OC)c2)ccc1O [HN19, (1E,6E)-1,7-bis(4-hydroxy-3-methoxyphenyl)hepta-1,6-diene{4(3,4 difluorobenzylidene)}-3,5-dione]
Effect against the panel of S. aureus strains ([1]; 24 strains SA1-SA24, broth micro-dilution): effective

SMILES: Cc1onc(-c2ccccc2)c1C(=O)N[C@@H]1C(=O)N2[C@@H]1SC(C)(C)[C@@H]2C(=O)O [Oxacillin, reference compound]
MIC (S. aureus isolates; read-out: Oxacillin MIC): > 16 µg/mL | Oxacillin MIC (S. aureus isolates; isolates SA1, SA2, prior to exposure to sub-inhibitory concentration of HN18 and HN34): > 16 µg/mL | MIC ([2]; isolate SA3, oxacillin tested alone): > 16 µg/mL | MIC ([2]; isolate SA4, oxacillin tested alone): > 16 µg/mL | MIC ([2]; isolate SA5, oxacillin tested alone): > 16 µg/mL | MIC ([2]; isolate SA9, oxacillin tested alone): > 16 µg/mL | MIC ([2]; isolate SA10, oxacillin tested alone): 16 µg/mL | MIC ([2]; isolate SA11, oxacillin tested alone): 8 µg/mL | MIC ([2]; isolate SA15, oxacillin tested alone): > 16 µg/mL | MIC ([2]; isolate SA18, oxacillin tested alone): > 16 µg/mL

SMILES: O=C(N[C@H](CO)[C@H](O)c1ccc([N+](=O)[O-])cc1)C(Cl)Cl [chloramphenicol]
MIC (S. aureus isolates; read-out: Chloramphenicol MIC): > 40 µg/mL

From patent US20200283384A1, “ANTIBACTERIAL COMPOUNDS AND METHODS OF USE THEREOF” (Wayne State University, priority 2016, published 2020)
